From ChEMBL document CHEMBL1909046, “DrugMatrix in vitro pharmacology data” come the findings set out here.

pIC50, pKi: −log10 of the molar value.

A short description of experiment [1]: DRUGMATRIX: Sodium/nucleoside co-transporter radioligand binding (ligand: nitrobenzylthioinosine). Type of experiment: cell membranes, Cavia porcellus, Dunkin-Hartley, Cerebral cortex, Membrane. The conditions noted are these: Not Active = under 50% inhibition at 10 µM.
The target of experiment [2] is Sodium-dependent noradrenaline transporter (Homo sapiens, UniProt P23975). In words: DRUGMATRIX: Norepinephrine Transporter radioligand binding (ligand: [125I] RTI-55). Type of experiment: cell membranes, MDCK, Membrane. The conditions noted are these: Not Active = under 50% inhibition at 10 µM; for IC50: mdck.
Sodium-dependent noradrenaline transporter, sequence (P23975 whole entry): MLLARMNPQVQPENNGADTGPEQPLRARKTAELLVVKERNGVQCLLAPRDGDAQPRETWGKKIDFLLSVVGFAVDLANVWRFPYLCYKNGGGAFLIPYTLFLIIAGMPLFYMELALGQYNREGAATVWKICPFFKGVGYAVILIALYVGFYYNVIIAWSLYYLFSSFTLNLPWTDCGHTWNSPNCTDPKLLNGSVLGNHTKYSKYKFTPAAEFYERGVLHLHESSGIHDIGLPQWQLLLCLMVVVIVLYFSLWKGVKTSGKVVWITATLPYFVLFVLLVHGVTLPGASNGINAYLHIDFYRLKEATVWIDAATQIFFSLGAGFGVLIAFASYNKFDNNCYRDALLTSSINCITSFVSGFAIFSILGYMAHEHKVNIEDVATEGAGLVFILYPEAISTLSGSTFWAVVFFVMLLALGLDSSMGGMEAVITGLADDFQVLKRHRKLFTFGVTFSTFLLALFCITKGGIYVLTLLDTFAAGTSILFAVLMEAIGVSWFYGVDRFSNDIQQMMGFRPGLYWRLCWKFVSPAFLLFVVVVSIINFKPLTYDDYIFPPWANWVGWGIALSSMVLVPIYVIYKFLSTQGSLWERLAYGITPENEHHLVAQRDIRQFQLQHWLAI
Experiment [3] concerns the target T1, Type-2 angiotensin II receptor (Homo sapiens, UniProt P50052). Note: in other assays of this panel Not Active means under 50% inhibition at 10 µM.
T1 sequence (P50052 whole entry): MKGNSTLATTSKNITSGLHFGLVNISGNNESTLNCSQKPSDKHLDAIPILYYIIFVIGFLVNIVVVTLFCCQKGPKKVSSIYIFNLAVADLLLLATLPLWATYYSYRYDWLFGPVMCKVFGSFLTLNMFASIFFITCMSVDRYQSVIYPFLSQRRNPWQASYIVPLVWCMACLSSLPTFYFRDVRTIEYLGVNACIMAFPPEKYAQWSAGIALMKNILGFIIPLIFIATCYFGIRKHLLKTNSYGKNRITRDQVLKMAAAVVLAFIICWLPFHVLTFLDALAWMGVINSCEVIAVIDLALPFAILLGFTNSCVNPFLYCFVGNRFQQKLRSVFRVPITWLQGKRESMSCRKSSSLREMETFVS
Type of experiment: cell-based. The conditions noted are these: cho-k1.

Experiment [4] addresses 5-hydroxytryptamine receptor 2B (Homo sapiens, UniProt P41595). Type of experiment: cell membranes, CHO-K1, Membrane. The conditions noted are these: for IC50: cho-k1.
The target of a further experiment is T2, Neutrophil elastase (Homo sapiens, UniProt P08246).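 Note: inhibition of neutrophil elastase enzyme activity, measured with a p-nitroanilide-linked peptide substrate; in other assays of this panel Not Active means under 50% inhibition at 10 µM.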
T2 sequence (P08246 whole entry): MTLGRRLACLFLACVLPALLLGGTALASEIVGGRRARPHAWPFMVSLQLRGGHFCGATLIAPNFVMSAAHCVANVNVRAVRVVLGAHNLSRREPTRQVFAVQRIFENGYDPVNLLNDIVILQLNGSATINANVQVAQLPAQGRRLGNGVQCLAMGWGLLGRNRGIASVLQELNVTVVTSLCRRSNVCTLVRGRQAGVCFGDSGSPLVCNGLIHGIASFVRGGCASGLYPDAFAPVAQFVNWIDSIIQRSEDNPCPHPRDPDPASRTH
The format is tissue-based.

The target in experiment [5] is Protein phosphatase 3 catalytic subunit alpha (Homo sapiens, UniProt Q08209). Also noted: species or system Escherichia coli.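 Note: inhibition of calcineurin (PP2B) enzyme activity, measured with DiFMUP as the substrate; in other assays of this panel Not Active means under 50% inhibition at 10 µM.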
The target of experiment [6] is T3, Receptor-type tyrosine-protein phosphatase C (Homo sapiens, UniProt P08575).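 Note: inhibition of CD45 enzyme activity measured using DiFMUP as substrate; in other assays of this panel Not Active means under 50% inhibition at 10 µM.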
T3 sequence (P08575 whole entry): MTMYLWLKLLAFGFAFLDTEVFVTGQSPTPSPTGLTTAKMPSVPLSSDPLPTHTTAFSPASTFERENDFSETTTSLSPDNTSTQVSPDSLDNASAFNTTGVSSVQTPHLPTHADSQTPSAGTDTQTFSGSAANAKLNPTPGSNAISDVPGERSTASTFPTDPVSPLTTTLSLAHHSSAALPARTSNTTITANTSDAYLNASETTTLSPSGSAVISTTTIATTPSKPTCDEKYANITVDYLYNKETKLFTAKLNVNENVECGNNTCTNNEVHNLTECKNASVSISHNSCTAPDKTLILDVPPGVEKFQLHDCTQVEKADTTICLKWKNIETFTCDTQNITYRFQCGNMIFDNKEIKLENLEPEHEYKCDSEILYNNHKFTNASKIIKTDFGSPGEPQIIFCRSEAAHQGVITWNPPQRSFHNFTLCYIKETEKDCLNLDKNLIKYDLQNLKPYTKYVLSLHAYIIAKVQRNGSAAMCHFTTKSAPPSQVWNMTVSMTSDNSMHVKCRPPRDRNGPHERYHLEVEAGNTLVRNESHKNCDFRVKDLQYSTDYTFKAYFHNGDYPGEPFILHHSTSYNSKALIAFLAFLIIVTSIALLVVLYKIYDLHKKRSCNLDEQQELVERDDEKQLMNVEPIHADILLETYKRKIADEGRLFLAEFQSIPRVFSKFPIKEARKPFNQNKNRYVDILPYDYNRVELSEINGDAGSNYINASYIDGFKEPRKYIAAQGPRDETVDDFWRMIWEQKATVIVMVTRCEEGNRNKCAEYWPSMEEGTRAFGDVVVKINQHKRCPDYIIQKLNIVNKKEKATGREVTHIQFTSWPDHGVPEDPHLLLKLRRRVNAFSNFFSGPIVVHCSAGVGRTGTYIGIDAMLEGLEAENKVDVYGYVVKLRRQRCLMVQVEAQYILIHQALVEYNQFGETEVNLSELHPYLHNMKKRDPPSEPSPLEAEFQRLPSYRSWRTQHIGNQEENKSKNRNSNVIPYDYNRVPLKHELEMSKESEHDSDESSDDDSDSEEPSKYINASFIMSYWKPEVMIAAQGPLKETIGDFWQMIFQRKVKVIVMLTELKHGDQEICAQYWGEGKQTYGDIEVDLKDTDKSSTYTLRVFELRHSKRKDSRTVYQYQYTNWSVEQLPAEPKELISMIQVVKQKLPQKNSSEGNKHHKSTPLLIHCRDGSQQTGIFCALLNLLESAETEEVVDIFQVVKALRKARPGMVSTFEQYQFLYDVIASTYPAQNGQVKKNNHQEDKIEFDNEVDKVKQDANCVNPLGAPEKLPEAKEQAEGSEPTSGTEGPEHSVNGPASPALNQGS
Also noted: species or system Escherichia coli.

The target in experiment [7] is T4, 5-hydroxytryptamine receptor 1A (Rattus norvegicus, UniProt P19327). Note: in other assays of this panel Not Active means under 50% inhibition at 10 µM.
T4 sequence (P19327 whole entry): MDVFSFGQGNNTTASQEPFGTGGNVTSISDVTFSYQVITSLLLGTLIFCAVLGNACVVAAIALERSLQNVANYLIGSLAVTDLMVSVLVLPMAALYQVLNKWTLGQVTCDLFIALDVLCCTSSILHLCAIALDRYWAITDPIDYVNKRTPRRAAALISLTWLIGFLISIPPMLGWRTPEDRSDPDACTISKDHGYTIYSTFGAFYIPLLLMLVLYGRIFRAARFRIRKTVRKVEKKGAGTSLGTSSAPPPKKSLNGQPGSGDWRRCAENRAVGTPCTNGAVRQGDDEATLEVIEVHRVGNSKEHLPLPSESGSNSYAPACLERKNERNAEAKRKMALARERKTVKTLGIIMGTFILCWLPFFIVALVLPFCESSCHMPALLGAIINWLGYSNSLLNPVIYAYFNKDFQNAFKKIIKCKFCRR
The format is cell membranes, Membrane. The settings on record: cho-k1.

5-hydroxytryptamine receptor 2B, sequence (P41595 whole entry): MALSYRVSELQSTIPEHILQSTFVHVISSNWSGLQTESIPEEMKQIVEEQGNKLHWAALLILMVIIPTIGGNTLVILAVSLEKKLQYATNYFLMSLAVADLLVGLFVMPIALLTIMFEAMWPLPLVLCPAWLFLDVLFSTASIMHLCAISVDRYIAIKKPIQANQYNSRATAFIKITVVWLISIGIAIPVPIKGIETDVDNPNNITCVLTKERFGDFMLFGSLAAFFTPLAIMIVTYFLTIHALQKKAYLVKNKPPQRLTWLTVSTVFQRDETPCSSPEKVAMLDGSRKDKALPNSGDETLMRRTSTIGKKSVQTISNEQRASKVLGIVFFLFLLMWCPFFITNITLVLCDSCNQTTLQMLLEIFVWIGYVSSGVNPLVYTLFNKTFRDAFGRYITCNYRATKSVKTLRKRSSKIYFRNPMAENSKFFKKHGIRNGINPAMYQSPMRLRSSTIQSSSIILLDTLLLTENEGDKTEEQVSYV

For `C[C@H]1O[C@@H](O[C@H]2[C@@H](O)C[C@H](O[C@H]3[C@@H](O)C[C@H](O[C@H]4CC[C@@]5(C)[C@H](CC[C@@H]6[C@@H]5CC[C@]5(C)[C@@H](C7=CC(=O)OC7)CC[C@]65O)C4)O[C@@H]3C)O[C@@H]2C)C[C@H](O)[C@@H]1O` [DIGITOXIN], the IC50 entry (in experiment [1]; in experiment [2]; in experiment [3]; in experiment [4]; against Neutrophil elastase; in experiment [5]) was “Not Active” in each case. Also, the IC50 result in experiment [6] and in experiment [7] was “Not Active” throughout. Besides, the Ki result in experiment [1] was “Not Active”.
Consider `CCN1CC(CCN2CCOCC2)C(c2ccccc2)(c2ccccc2)C1=O` (stereo unspecified) [DOXAPRAM], for which the IC50 result (in experiment [1]; in experiment [2]; in experiment [3]; in experiment [4]; at Neutrophil elastase; in experiment [5]) was “Not Active” throughout. Besides, the IC50 result in experiment [6] and in experiment [7] was “Not Active” throughout. In addition, in experiment [1], the Ki entry was “Not Active”.
As to `Cn1c(=O)c2c(ncn2CC2OCCO2)n(C)c1=O` [DOXOFYLLINE], the IC50 entry (in experiment [1]; in experiment [2]; in experiment [3]; in experiment [4]; against Neutrophil elastase; in experiment [5]) was “Not Active” in each case. The IC50 entry in experiment [6] and in experiment [7] was “Not Active” each time. Also, in experiment [1], the Ki entry is “Not Active”.
As for `COc1cccc2c1C(=O)c1c(O)c3c(c(O)c1C2=O)C[C@@](O)(C(=O)CO)C[C@@H]3O[C@H]1C[C@H](N)[C@H](O)[C@H](C)O1` [DOXORUBICIN], the IC50 result (in experiment [1]; in experiment [2]; in experiment [3]; in experiment [4]; against Neutrophil elastase; in experiment [5]) was “Not Active” each time. Moreover, the IC50 result in experiment [6] and in experiment [7] was “Not Active” throughout. Besides, in experiment [1], the Ki entry was “Not Active”.
On to `COc1cccc2c1C(=O)c1c(O)c3c(c(O)c1C2=O)C[C@@](O)(C(=O)CO)C[C@@H]3O[C@H]1C[C@H](N)[C@@H](O)[C@H](C)O1` [EPIRUBICIN], for which the IC50 entry (in experiment [1]; in experiment [2]; in experiment [3]; in experiment [4]; against Neutrophil elastase; in experiment [5]) was “Not Active” each time. The IC50 entry in experiment [6] and in experiment [7] was “Not Active” each time. Besides, the Ki entry in experiment [1] is “Not Active”.
One may read the pIC50 as the negative decadic logarithm of the IC50, by convention in mol/L. In general, pKi refers to −log10 of the Ki, conventionally taken in molar units. In the case of `C[C@]12CC[C@@H]3c4ccc(OC(=O)c5ccccc5)cc4CC[C@H]3[C@@H]1CC[C@@H]2O` [ESTRADIOL BENZOATE], the IC50 entry (in experiment [1]; in experiment [3]; at Neutrophil elastase; in experiment [5]; in experiment [6]; in experiment [7]) was “Not Active” each time. Further, the Ki result in experiment [1] is recorded as “Not Active”. The values for the pIC50 in experiment [2] (read-out: IC50) and in experiment [4] (read-out: IC50) were 4.76 and 4.94, respectively. The pKi is 4.77 in experiment [2] (read-out: Ki) and 5.13 in experiment [4] (read-out: Ki).
For the molecule `C[C@]12CC[C@@H]3c4ccc(O)cc4CC[C@H]3[C@@H]1CC[C@@H]2O` [ESTRADIOL], the IC50 entry (in experiment [1]; in experiment [2]; in experiment [3]; in experiment [4]; against Neutrophil elastase; in experiment [5]) was “Not Active” each time. Also, the IC50 result in experiment [6] and in experiment [7] was “Not Active” throughout. Moreover, the Ki entry in experiment [1] is “Not Active”.
As for `CC[C@@H](CO)NCCN[C@@H](CC)CO` [ETHAMBUTOL], the IC50 result (in experiment [1]; in experiment [2]; in experiment [3]; in experiment [4]; on Neutrophil elastase; in experiment [5]) was “Not Active” in each case. Besides, the IC50 result in experiment [6] and in experiment [7] was “Not Active” throughout. The Ki result in experiment [1] is on record as “Not Active”.
In the case of `CC1(C)O[C@@H]2C[C@H]3[C@@H]4C[C@H](F)C5=CC(=O)C=C[C@]5(C)[C@H]4[C@@H](O)C[C@]3(C)[C@]2(C(=O)CO)O1` [FLUNISOLIDE], the IC50 result (in experiment [1]; in experiment [2]; in experiment [3]; in experiment [4]; against Neutrophil elastase; in experiment [5]) was “Not Active” throughout. Further, the IC50 entry in experiment [6] and in experiment [7] was “Not Active” throughout. For the same molecule, the Ki entry in experiment [1] was “Not Active”.
As for `CC1(C)O[C@@H]2C[C@H]3[C@@H]4C[C@H](F)C5=CC(=O)C=C[C@]5(C)[C@@]4(F)[C@@H](O)C[C@]3(C)[C@]2(C(=O)CO)O1` [FLUOCINOLONE ACETONIDE], the IC50 result (in experiment [1]; in experiment [2]; in experiment [3]; in experiment [4]; at Neutrophil elastase; in experiment [5]) was “Not Active” in each case. Further, the IC50 result in experiment [6] and in experiment [7] was “Not Active” in each case. Besides, the Ki entry in experiment [1] is “Not Active”.
Consider `CC1(C)O[C@@H]2C[C@H]3[C@@H]4C[C@H](F)C5=CC(=O)CC[C@]5(C)[C@H]4[C@@H](O)C[C@]3(C)[C@]2(C(=O)CO)O1` [FLURANDRENOLIDE], for which the IC50 entry (in experiment [1]; in experiment [2]; in experiment [3]; in experiment [4]; against Neutrophil elastase; in experiment [5]) was “Not Active” throughout. Moreover, the IC50 entry in experiment [6] and in experiment [7] was “Not Active” each time. Further, the Ki result in experiment [1] is on record as “Not Active”.
